A short description of data set [1]: Cytotoxicity against human NCI-H1650 cells at 10 uM measured after 72 hrs by MTT assay. Type of data set: toxicity, cell-based. To be noted: nci-h1650, 72 h.
Data set [2] is described as follows: Cytotoxicity against human HepG2 cells at 10 uM measured after 72 hrs by MTT assay. Type of data set: toxicity, cell-based. To be noted: hepg2, 72 h.
The nature of data set [3]: Cytotoxicity against human A2780 cells at 10 uM measured after 72 hrs by MTT assay. The format is toxicity, cell-based. To be noted: a2780, 72 h.
Data set [4] can be described thus: Cytotoxicity against human HCT116 cells at 10 uM measured after 72 hrs by MTT assay. Type of data set: toxicity, cell-based. To be noted: hct-116, 72 h.
For data set [5], the system named is BV-2. The experiment in a line: Inhibition of LPS-induced nitric oxide production in mouse BV2 cells pretreated for 1 hr before LPS stimulation measured after 24 hrs by Griess assay. Type of data set: functional, cell-based.
Data set [6] can be described thus: Cytotoxicity against human BGC823 cells at 10 uM measured after 72 hrs by MTT assay. The format is toxicity, cell-based. To be noted: bgc-823, 72 h.

Molecules are shown by their SMILES.

As for `Oc1cccc2c1[C@@H](O)[C@H]1O[C@H]1C21Oc2cccc3cccc(c23)O1`, the Activity entry in data set [1], in data set [2], in data set [3], in data set [4] and in data set [6] was “Non-Toxic” in each case. The IC50 in data set [5] was found to be 2.05 µM.

On to `Oc1cccc2c1[C@H](O)[C@@H]1O[C@@H]1C21Oc2cccc3cccc(c23)O1`, for which the Activity entry in data set [1], in data set [2], in data set [3], in data set [4] and in data set [6] was “Non-Toxic” each time. Also, the half-maximal inhibitory concentration (IC50) in data set [5] is 4.85 µM.

Regarding `COc1cc(O)cc2c1C(=O)O[C@@H](C)CCC[C@H](O)CCC2`, the Activity entry in data set [1], in data set [2], in data set [3], in data set [4] and in data set [6] was “Non-Toxic” in each case. Also, in data set [5], the half-inhibitory concentration (IC50) came out at 87.1 µM.

On to `Oc1cccc2c1[C@H](O)C[C@@H](O)C21Oc2cccc3cccc(c23)O1`, for which the Activity result in data set [1], in data set [2], in data set [3], in data set [4] and in data set [6] was “Non-Toxic” throughout. Also, the IC50 in data set [5] came out at 67.6 µM.

As for `O=C1C[C@@H](O)[C@]23Oc4cccc5c4[C@](CC[C@@H]5O)(Oc4ccc(O)c1c42)O3`, the Activity result in data set [1], in data set [2], in data set [3], in data set [4] and in data set [6] was “Non-Toxic” in each case. Besides, the IC50 in data set [5] is > 100 µM.

Regarding `COc1cc(O)cc2c1C(=O)O[C@@H](C)CCC[C@@H](O)CCC2`, the Activity entry in data set [1], in data set [2], in data set [3], in data set [4] and in data set [6] was “Non-Toxic” throughout. The IC50 in data set [5] was > 100 µM.

As to `Oc1cccc2c1[C@@H](O)[C@H](O)[C@@H](O)C21Oc2cccc3cccc(c23)O1`, the Activity result in data set [1], in data set [2], in data set [3], in data set [4] and in data set [6] was “Non-Toxic” throughout. The IC50 in data set [5] is > 100 µM.

As to `O=C1CC[C@]23Oc4ccc(O)c5c4[C@](Oc4cccc1c42)(O3)[C@H](O)CC5=O`, the Activity result in data set [1], in data set [2], in data set [3], in data set [4] and in data set [6] was “Non-Toxic” in each case. For the same molecule, the IC50 in data set [5] was > 100 µM.

As for `CO[C@H]1c2c(O)cccc2C2(Oc3cccc4cccc(c34)O2)[C@H](O)[C@H]1O`, the Activity result in data set [1], in data set [2], in data set [3], in data set [4] and in data set [6] was “Non-Toxic” each time. Moreover, the IC50 in data set [5] was found to be 25.7 µM.

Take `O=C1CC[C@]23Oc4ccc(O)c5c4[C@](Oc4cccc1c42)(O3)[C@@H]1O[C@@H]1[C@@H]5O`: the Activity result in data set [1], in data set [2], in data set [3], in data set [4] and in data set [6] was “Non-Toxic” throughout. Further, the IC50 in data set [5] is 11.7 µM.

As for `COc1cc(/C=C/C(=O)CC(=O)/C=C/c2ccc(O)c(OC)c2)ccc1O` [CURCUMIN], the IC50 in data set [5] came out at 1.42 µM.

In the case of `COc1cc(O)cc2c1C(=O)O[C@@H](C)CCCCCCC2` [LASIODIPLODIN], the Activity entry in data set [1], in data set [2], in data set [3], in data set [4] and in data set [6] was “Non-Toxic” throughout. The IC50 in data set [5] was > 100 µM.

Regarding `CO[C@@H]1CC(=O)c2cccc3c2[C@@]12Oc1ccc(O)c4c1[C@](O3)(O2)[C@@H]1O[C@@H]1[C@@H]4O` [PREUSSOMERIN C], the Activity entry in data set [1], in data set [2], in data set [3], in data set [4] and in data set [6] was “Non-Toxic” throughout. In data set [5], the IC50 is 1.16 µM.

The values are drawn from ChEMBL document CHEMBL3865842, “Spirobisnaphthalenes and lactones from the seeds of Strychnos angustiflora with potential anti-inflammatory activity” (Bioorg Med Chem Lett, 2016).
